Data as given in publication PMC12280126, “Potent β-lactam-based tyrosyl-DNA phosphodiesterase 1 inhibitors identified by a virtual screen” (Scientific Reports, 2025).
Where “and” joins values, the source holds several entries; their conditions need not be identical. Equal values may be shown once. Where a name gives a salt, the structure may show the parent alone. Read-outs that look alike come from different tables or passages of the source.

What was measured:
recombinant TDP1 = target: T1, recombinant TDP1 (Homo sapiens, UniProt Q9NUW8); experiment: in vitro gel-based fluorescence TDP1 catalytic assay; assay type: biochemical
T1 construct: incubated with 40 pM full-length recombinant TDP1 or TDP1 (148–608)
T1 sequence (Q9NUW8 whole entry): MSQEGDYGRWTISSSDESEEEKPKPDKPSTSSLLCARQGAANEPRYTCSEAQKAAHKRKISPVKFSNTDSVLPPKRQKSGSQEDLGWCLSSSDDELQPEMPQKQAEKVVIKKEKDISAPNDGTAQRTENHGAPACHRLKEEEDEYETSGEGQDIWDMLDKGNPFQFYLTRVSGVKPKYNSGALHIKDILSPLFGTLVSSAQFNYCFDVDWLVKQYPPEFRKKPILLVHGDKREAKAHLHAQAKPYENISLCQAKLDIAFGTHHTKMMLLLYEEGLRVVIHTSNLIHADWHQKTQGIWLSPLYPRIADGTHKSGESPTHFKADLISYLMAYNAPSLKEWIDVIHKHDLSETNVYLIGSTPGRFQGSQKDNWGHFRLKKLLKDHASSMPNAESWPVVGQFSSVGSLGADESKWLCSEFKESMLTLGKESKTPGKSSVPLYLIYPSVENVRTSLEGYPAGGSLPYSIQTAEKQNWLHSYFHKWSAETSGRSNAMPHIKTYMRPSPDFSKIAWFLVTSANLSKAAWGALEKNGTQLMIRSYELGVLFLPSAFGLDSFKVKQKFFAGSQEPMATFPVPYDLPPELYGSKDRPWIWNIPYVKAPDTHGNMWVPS
Description: We subjected select virtual screen hits to evaluation of TDP1 inhibitory potencies using in vitro gel-based fluorescence TDP1 catalytic assays (Fig. 2). […] To further explore this class of compounds, we purchased from TargetMol a library of approximately 90 β-lactams as 10 mM solutions in DMSO. […] We examined TDP1 inhibitory potencies of the compounds using the in vitro gel-based fluorescence assays as previously described[21]–[24]. Briefly, a 5’-Cy5-labeled DNA substrate (N14Y, 5’-Cy5-[…]-pY-3’, 1 nM) was incubated in TDP1 reaction buffer with recombinant TDP1 or truncated TDP1(148–608) (40 pM) in the absence or presence of inhibitors for 15 min at room temperature. […] The TDP1 inhibition IC50 values were calculated based on gel images of the cleavage product (N14P, 5’-Cy5-[…]-p-3’) (Fig. 3A and Table S2).
(§1) The inhibition of TDP1 and TDP2 were conducted according to gel-based methods as previously described[21]–[24],[45]. Briefly, 1 nM of the DNA substrate (N14Y, 5´Cy5-[…]-pY-3´) was incubated with 40 pM full-length recombinant TDP1 or TDP1 (148–608) in the absence or presence of inhibitors for 15 min at room temperature in TDP1 reaction buffer (50 mM Tris-HCl, pH 7.5, 80 mM KCl, 2 mM EDTA, 1 mM DTT, 40 µg/mL BSA and 0.01% Tween 20). The inhibition of TDP2 was also conducted by using similar conditions. […] The reactions of both TDP1 and TDP2 were stopped by adding an equal volume of gel loading buffer (99.5% (v/v) formamide, 5 mM EDTA). The samples were then subjected to a 20% denaturing PAGE gel followed by gel scanning using a Typhoon FLA 9500 scanner (GE Healthcare). The IC50 values of the TDP1 inhibitors were calculated by comparing the percentage of the cleavage product (N14P, 5´Cy5-[…]-p-3´) produced to that in the DMSO control. The IC50 values of the TDP2 inhibitors were calculated by comparing the percentage of the cleavage product (PN18, 5’-p-[…]-Cy5-3’) produced to that in the DMSO control.

recombinant TDP2 = target: T2, recombinant TDP2 (Homo sapiens, UniProt O95551); experiment: in vitro gel-based fluorescence TDP2 assay (counterscreen); assay type: biochemical; conditions: for IC50: 15 min, RT
T2 sequence (O95551 1-362): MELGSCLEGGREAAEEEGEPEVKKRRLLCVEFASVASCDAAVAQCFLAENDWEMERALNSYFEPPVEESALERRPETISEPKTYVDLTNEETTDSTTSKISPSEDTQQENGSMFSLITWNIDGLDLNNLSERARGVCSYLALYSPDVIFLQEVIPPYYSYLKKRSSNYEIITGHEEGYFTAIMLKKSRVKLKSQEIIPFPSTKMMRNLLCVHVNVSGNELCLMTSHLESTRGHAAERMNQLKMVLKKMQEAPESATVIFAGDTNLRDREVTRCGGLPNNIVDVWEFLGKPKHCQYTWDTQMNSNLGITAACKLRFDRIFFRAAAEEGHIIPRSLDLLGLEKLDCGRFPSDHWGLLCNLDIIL
Description: as §1

TDP1(148–608) [1] = target: T3, TDP1(148–608) (Homo sapiens, UniProt Q9NUW8); experiment: gel-based fluorescence assay with truncated TDP1 compared with full-length TDP1; assay type: biochemical
T3 construct: SPR experiments were recorded for the truncated TDP1(148–608) and the β-lactam compound
T3 sequence (Q9NUW8 148-608): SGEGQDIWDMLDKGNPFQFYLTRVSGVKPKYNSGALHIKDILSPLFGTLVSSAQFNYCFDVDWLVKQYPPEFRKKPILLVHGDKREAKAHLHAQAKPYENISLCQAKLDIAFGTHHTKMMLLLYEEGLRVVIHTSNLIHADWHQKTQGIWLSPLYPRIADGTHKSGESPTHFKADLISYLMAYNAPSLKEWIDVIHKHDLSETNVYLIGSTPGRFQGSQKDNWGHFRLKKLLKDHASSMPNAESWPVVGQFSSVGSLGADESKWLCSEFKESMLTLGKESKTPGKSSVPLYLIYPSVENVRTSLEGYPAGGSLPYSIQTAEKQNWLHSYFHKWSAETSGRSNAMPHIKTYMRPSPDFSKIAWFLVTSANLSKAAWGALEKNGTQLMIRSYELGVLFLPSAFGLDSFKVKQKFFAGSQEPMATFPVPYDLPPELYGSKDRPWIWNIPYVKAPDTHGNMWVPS
Description: as §1

TDP1(148–608) [2] = target: T3, TDP1(148–608); experiment: Surface plasmon resonance (SPR) binding analysis
Description: A central mechanism of action of β-lactam antibiotics involves covalent modification of serine residues in PBPs. However, β-lactams are also known to covalently modify proteins more broadly[35],[42]. Mass spectroscopy has proven to be invaluable in characterizing protein modification by β-lactams[43],[44]. […] We evaluated cephalosporin C (11) in SPR studies. For SPR, we immobilized the TDP1(148–608) on an SPR chip and measured the binding of compounds as a function of concentration.
SPR experiments were recorded for the truncated TDP1(148–608) and the β-lactam compound with Biacore T200 system (GE Healthcare). Using the amine coupling kit (Cytiva), 11,000 RU of TDP1 was covalently immobilized on a CM5 chip (Cytiva) via amine coupling. The β-lactam compounds were prepared in HBS-P buffer (Cytiva). Experiments in high-performance mode was carried out using five injections (30 µL/min) of increasing concentrations of the β-lactam (50 nM – 25 µM) passed over the sensor chip for 180 s, followed by a 1200 s dissociation. Buffer and reference signals were subtracted and binding affinities (Kd) were determined using the Biacore T200 evaluation software (GE Healthcare).

[3] = test system: human colon cancer cell line HCT116; experiment: Cell viability, synergistic effect with camptothecin (CPT); assay type: cell-based
Description: We undertook further assays to determine whether the β-lactams could act in cells as TDP1 inhibitors.
The synergistic effects of the TDP1 inhibitors with CPT were tested in human colon cancer cell line HCT116 based on cell viability[22],[23]. Cells were first seeded in a 384-well black-clear plate until 30% confluency and then incubated with a serial dilution of CPT at the range of 0-100 nM (0, 12.5, 25, 50, 100 nM) in the present or the absence of desired concentrations of TDP1 inhibitors for 72 h at 37 °C. DMSO was used as control. Viable cell numbers were counted from the brightfield images taken by Biotek Cytation 5.

TDP1(148–608) [4] = target: T3, TDP1(148–608); experiment: Intact mass and PTM-mapping mass spectrometry for covalent modification; conditions: enzyme-to-compound ratios 1:125 to 1:1000
Description: We also digested the TDP1 following incubation with the compounds.

[5] = 40 pM recombinant TDP1, 1 nM N14Y DNA substrate, 15 min, room temperature, read-out: TDP1 IC50
[6] = 40 pM recombinant TDP2, 1 nM YN18 DNA substrate, read-out: TDP2 IC50
[7] = TDP1 IC50, 40 pM recombinant TDP1, 1 nM N14Y DNA substrate, 15 min, room temperature
[8] = TDP2 IC50, 40 pM recombinant TDP2, 1 nM YN18 DNA substrate

IC50 (recombinant TDP2; [6]) [µM] | Structure (SMILES) | IC50 (recombinant TDP1; [5]) | further results
45.5 | CC1(Cn2ccnn2)C(C(=O)O)N2C(=O)CC2S1(=O)=O (centres unmarked) [LF8, Tazobactam acid] | 73.8 µM and < 100 µM and 74 µM | –
18.9 ± 2.2 | CC(C)(O/N=C(\C(=O)N[C@@H]1C(=O)N2C(C(=O)[O-])=C(C[n+]3ccccc3)CS[C@H]12)c1csc(N)n1)C(=O)O [LF6, Ceftazidime] | 5.8 µM and < 100 µM | –
2.49 | CC1(C)S[C@@H]2[C@H](NC(=O)[C@H](N)c3ccccc3)C(=O)N2[C@H]1C(=O)O [LB9, Ampicillin sodium] | 10.3 µM and < 100 µM and 10 µM | greater potency against TDP2 than TDP1 (recombinant TDP2; ratio of gel-based IC50 values): 4 fold
36 ± 1.35 | Cc1onc(-c2c(F)cccc2Cl)c1C(=O)N[C@@H]1C(=O)N2[C@@H]1SC(C)(C)[C@@H]2C(=O)O [LC11, Flucloxacillin sodium] | – | –
– | CC(=O)OCC1=C(C(=O)O)N2C(=O)[C@@H](NC(=O)CCC[C@@H](N)C(=O)O)[C@H]2SC1 [compound 11, cephalosporin C] | – | IC50 (recombinant TDP1; [7]): 4.43 µM and 4.4 µM; IC50 (recombinant TDP2; [8]): > 100 µM; loss of inhibitory potencies with only the C-terminal residues TDP1(148–608) compared with full-length TDP1 (TDP1(148–608) [1]): more than 50 fold; binding mode from SPR (compound eluted off the chip without impacting binding capacity) (TDP1(148–608) [2]): more likely bound non-covalently; Kd (TDP1(148–608) [2]; TDP1(148–608) immobilized on CM5 chip, 50 nM – 25 µM compound): 11.6 µM; effect in combination with TOP1 inhibitor CPT on cell viability ([3]; HCT116, 25 µM, CPT 0-100 nM, 72 h): acted synergistically; cytotoxicity on its own ([3]; without CPT): no cytotoxicity; covalent modification of TDP1 (intact mass analysis) (TDP1(148–608) [4]): not able to detect covalent modification of TDP1
52.6 | O=C1[C@H](CC[C@H](O)c2ccc(F)cc2)[C@@H](c2ccc(O)cc2)N1c1ccc(F)cc1 [LE9, Ezetimibe] | 27.5 µM and < 100 µM and 27 µM | –
69.3 ± 6 | C=CC1=C(C(=O)O)N2C(=O)[C@@H](NC(=O)/C(=N\OCC(=O)O)c3csc(N)n3)[C@H]2SC1 [LH5, Cefixime] | 4 µM and < 100 µM | –
80.9 ± 13.2 | CON=C(C(=O)NC1C(=O)N2C(C(=O)O)=C(CSC(=O)c3ccco3)CSC12)c1csc(N)n1 (centres unmarked) [LC2, Ceftiofur hydrochloride] | > 1000 µM | –
– | CC(=O)OCC1=C(C(=O)O)N2C(=O)[C@@H](NC(=O)CCC[C@@H](N)C(=O)O)[C@H]2SC1 [LB2, Cephalosporin C zinc salt] | – | IC50 (recombinant TDP1; [7]): 5.54 µM and < 100 µM and 5.5 µM; IC50 (recombinant TDP2; [8]): 38.3 µM; greater potency against TDP1 than against TDP2 (recombinant TDP2; ratio of gel-based IC50 values): approximately 7 fold
35.2 | CC(=O)OCC1=C(C(=O)O)N2C(=O)[C@@H](NC(=O)Cc3cccs3)[C@H]2SC1 [LG7, Cephalothin sodium] | – | –
99 ± 2.15 | CC1(C)S[C@@H]2[C@H](NC(=O)[C@H](N)c3ccc(O)cc3)C(=O)N2[C@H]1C(=O)O [LB11, Amoxicillin Sodium] | – | –
– | CC/C=C(\C(=O)N[C@@H]1C(=O)N2C(C(=O)OCOC(=O)C(C)(C)C)=C(COC(N)=O)CS[C@H]12)c1csc(N)n1 [LD6, Cefcapene Pivoxil Hydrochloride] | > 1000 µM | –
201 | CC1(C)[C@H](C(=O)O)N2C(=O)C[C@H]2S1(=O)=O [LB6, Sulbactam sodium] | 84.5 µM and < 100 µM and 85 µM | –
81.7 ± 5.2 | CO/N=C(\C(=O)N[C@@H]1C(=O)N2C(C(=O)O)=C(COC(C)=O)CS[C@H]12)c1csc(N)n1 [LA9, Cefotaxime] | – | –
– | CCO/N=C(\C(=O)N[C@@H]1C(=O)N2C(C(=O)[O-])=C(Sc3nc(-c4cc[n+](C)cc4)cs3)CS[C@H]12)c1nsc(NP(=O)(O)O)n1 [LA11, Ceftaroline fosamil] | > 1000 µM | –
224 ± 26 | CCN1CCN(C(=O)N[C@@H](C(=O)N[C@@H]2C(=O)N3[C@@H]2SC(C)(C)[C@@H]3C(=O)O)c2ccccc2)C(=O)C1=O [LA2, piperacillin] | 28 µM and < 100 µM | –
– | C/C=C/C1=C(C(=O)O)N2C(=O)[C@@H](NC(=O)[C@H](N)c3ccc(O)cc3)[C@H]2SC1 [LG8, Cefprozil hydrate] | > 1000 µM | –
– | CO[C@@]1(NC(=O)C2SC(=C(C(N)=O)C(=O)O)S2)C(=O)N2C(C(=O)O)=C(CSc3nnnn3C)CS[C@@H]21 (some centres unmarked) [LB4, Cefotetan] | 379 µM | –
– | Cc1nnc(SCC2=C(C(=O)O)N3C(=O)[C@@H](NC(=O)Cn4cc(Cl)c(=O)c(Cl)c4)[C@H]3SC2)s1 [LA8, Cefazedone] | > 1000 µM | –
– | C[C@@H](O)[C@H]1C(=O)N2C(C(=O)O)=C(S[C@@H]3CN[C@H](C(=O)N(C)C)C3)[C@H](C)[C@H]12 [LF1, Meropenem] | > 1000 µM | –
– | C[C@@H](O)[C@H]1C(=O)N2C(C(=O)O)=C(S[C@@H]3CN[C@H](CNS(N)(=O)=O)C3)[C@H](C)[C@H]12 [LE10, Doripenem Hydrate] | > 1000 µM | –
– | C[C@@H](O)[C@H]1C(=O)N2C(C(=O)O)=C(S[C@@H]3CN[C@H](C(=O)Nc4cccc(C(=O)O)c4)C3)[C@H](C)[C@H]12 [LD5, Ertapenem sodium] | > 1000 µM | –
– | Cn1nnnc1SCC1=C(C(=O)O)N2C(=O)[C@@H](NC(=O)[C@H](OC=O)c3ccccc3)[C@H]2SC1 [LD4, Cefamandole nafate] | > 1000 µM | –
– | CC(=O)OCC1=C(C(=O)O)N2C(=O)[C@@H](NC(=O)CSc3ccncc3)[C@H]2SC1 [LA7, Cephapirin Benzathine] | – | IC50 (recombinant TDP1; read-out: TDP1 IC50): > 1000 µM
– | CC(=O)OCC1=C(C(=O)O)N2C(=O)[C@@H](NC(=O)CCC[C@@H](N)C(=O)O)[C@H]2SC1 [11-Zn, Cephalosporin C Zinc salt] | – | IC50 (recombinant TDP1; read-out: TDP1 IC50, 40 pM recombinant TDP1, 1 nM N14Y DNA substrate, 15 min, room temperature): 5.3 µM; IC50 (recombinant TDP2; read-out: TDP2 IC50, 40 pM recombinant TDP2, 1 nM YN18 DNA substrate): 89.1 µM
– | NCc1ccccc1CC(=O)N[C@@H]1C(=O)N2C(C(=O)O)=C(CSc3nnnn3CC(=O)O)CS[C@H]12 [LC10, Ceforanide] | 378 µM | –

Structure (SMILES) | IC50 (recombinant TDP2; [6]) [µM] | IC50 (recombinant TDP1; [5]) | further results
CC1(C)S[C@@H]2[C@H](NC(=O)Cc3ccccc3)C(=O)N2[C@H]1C(=O)O [LD8, Procaine penicillin G] | 77.4 | 84.8 µM and < 100 µM and 85 µM | –
COc1cccc2c1cc1c3c(cc4c(c32)OCO4)C(=O)N1 [LE2, Aristololactam I] | 70.1 | 80.6 µM and 81 µM | IC50 (recombinant TDP1; [7]): < 100 µM
CC1(C)S[C@@H]2[C@H](NC(=O)Cc3ccccc3)C(=O)N2[C@H]1C(=O)O [LC5, Benzylpenicillin potassium] | 26.1 ± 3.35 | > 1000 µM | –
CC1(C)S[C@@H]2[C@H](NC(=O)[C@H](N)c3ccccc3)C(=O)N2[C@H]1C(=O)O [LD1, Ampicillin Trihydrate] | > 1000 | 77.3 µM and < 100 µM and 77 µM | –
CO/N=C(\C(=O)N[C@@H]1C(=O)N2C(C(=O)O)=CCS[C@H]12)c1csc(N)n1 [LD9, Ceftizoxime] | 37.6 ± 7.4 | 10.8 µM and < 100 µM and 11 µM | –
